In patent US20250163057A1, “DCN-1 MODULATING COMPOUNDS AND METHODS OF USE THEREOF” (Cellarity, Inc., priority 2023, published 2025) one finds IC50 data, which are given here for 26 compounds.

SMILES strings stand for the structures. pIC50: −log10 of the molar value. Read-outs that look alike come from different tables or passages of the source.

This assay has as its target DCN1 (DCUND1) protein PONY domain (Homo sapiens (Human), UniProt Q96GG9). The assay can be described thus: TR-FRET assay, DCN1 binding with FAM-labeled probe. The following applies: for IC50: TR FRET IC50 1 hr (nM). Here is the method:
A TR-FRET assay was performed to evaluate the ability of the compounds to bind the DCN-1 protein.
The TR-FRET assay was designed following the Scott et al. protocol (Scott et al., Nat Chem Biol. 2017 August; 13(8): 850-857. Doi:10.1038/nchembio.2386). The recombinant form of the DCN1 (DCUND1) protein PONY domain was produced using an E. coli expression system at Viva Biotech (China). The DCN1 protein was biotinylated (EZ sulfo-NHS-LC-biotin; Thermofisher) for labeling with streptavidin terbium (Tb) cryptate in the reaction. The probe was changed to a non-covalent DCN1 inhibitor labeled with carboxyfluorescein (FAM; Zhou et al., Nat Commun. 2017; 8: 1150. Doi: 10.1038/s41467-017-01243-7). Buffer conditions were modified to enhance protein stability by exchanging Tween20 for TritonX and increasing NaCl to 200 mM. The compounds were screened against 5 nM DCN1 and 20 nM FAM-probe or 0.31 nM DCN1 and 900 nM total probe (100 nM FAM-labeled plus 800 nM unlabeled). The TR-FRET ratio between Tb-DCN1 and the FAM-labeled probe was measured in a 384-well opti-plate (Perkin Elmer) using a plate reader (BMG) at 1, 5, and 24 hrs after treatment with compound (final DMSO concentration of 0.1%).

The mark [1] stands for this setting: 24 hr after treatment with compound, read-out: TR FRET IC50 24 hr.
Where [2] appears, read: 1 hr after treatment with compound.

DCN1 (DCUND1) protein PONY domain, sequence (Q96GG9 60-248): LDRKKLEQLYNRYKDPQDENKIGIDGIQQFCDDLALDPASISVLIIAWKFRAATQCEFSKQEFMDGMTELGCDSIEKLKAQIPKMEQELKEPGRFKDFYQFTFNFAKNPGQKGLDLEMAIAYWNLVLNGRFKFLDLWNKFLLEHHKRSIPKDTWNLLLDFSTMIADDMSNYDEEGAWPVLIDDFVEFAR

As to `CCN1C(=O)[C@@H](NC(=O)c2cccc(C(F)(F)F)c2)[C@@H](c2ccc(F)cc2)c2c(CC/C=C/C(=O)OC)nn(-c3ccccc3)c21` (racemic) [Compound I-128, rac-methyl (E)-5-((4R,5R)-7-ethyl-4-(4-fluorophenyl)-6-oxo-1-phenyl-5-(3-(trifluoromethyl)benzamido)-4,5,6,7-tetrahydro-1H-pyrazolo[3,4-b]pyridin-3-yl)pent-2-enoate], under setting [1], the negative logarithm of the IC50 (pIC50) is 6.00 to 6.70. Also, under setting [2], the half-maximal inhibitory concentration (IC50) was in the range of 1000 to 3000 nM.

Take `CCN1C(=O)[C@@H](NC(=O)c2cccc(C(F)(F)F)c2)[C@@H](c2ccc(F)cc2)c2c(CC/C=C/C(=O)O)nn(-c3ccccc3)c21` (racemic) [Compound I-134, rac-(E)-5-((4R,5R)-7-ethyl-4-(4-fluorophenyl)-6-oxo-1-phenyl-5-(3-(trifluoromethyl)benzamido)-4,5,6,7-tetrahydro-1H-pyrazolo[3,4-b]pyridin-3-yl)pent-2-enoic acid]: under setting [1], the negative-log IC50 (pIC50) is 6.00 to 6.70. In addition, the IC50 under setting [2] was 200 to 1000 nM.

For the compound `CCN1C(=O)[C@@H](NC(=O)c2cccc(C(F)(F)F)c2)[C@@H](c2ccc(F)cc2)c2c(CC/C=C\C(N)=O)nn(-c3ccccc3)c21` (racemic) [Compound I-142], under setting [1], the pIC50 is 6.00 to 6.70. In addition, under setting [2], the IC50 lay within 200 to 1000 nM.

In the case of `CCN1C(=O)[C@@H](NC(=O)c2cccc(C(F)(F)F)c2)[C@@H](c2ccc(F)cc2)c2c(C(C)(C)NC#N)nn(-c3ccccc3)c21` (racemic) [Compound I-144, rac-N-((4R,5R)-3-(2-cyanamidopropan-2-yl)-7-ethyl-4-(4-fluorophenyl)-6-oxo-1-phenyl-4,5,6,7-tetrahydro-1H-pyrazolo[3,4-b]pyridin-5-yl)-3-(trifluoromethyl)benzamide], the pIC50 under setting [1] was 6.00 to 6.70. In addition, under setting [2], the IC50 is 1000 to 3000 nM.

For `CCN1C(=O)[C@@H](NC(=O)c2cccc(C(F)(F)F)c2)[C@@H](c2ccc(F)cc2)c2c(CN(C)C(=O)C(F)Cl)nn(-c3ccccc3)c21` (mixture of isomers) [Compound I-145], under setting [1], the negative-log IC50 (pIC50) was 6.00 to 6.70. In addition, under setting [2], the half-maximal inhibitory concentration (IC50) fell in the range of 200 to 1000 nM.

Turning to `C=C(C(=O)OC(C)(C)C)[C@@H](O)c1nn(-c2ccccc2)c2c1[C@H](c1ccc(F)cc1)[C@H](NC(=O)c1cccc(C(F)(F)F)c1)C(=O)N2CC` (racemic) [Compound I-146, rac-tert-butyl 2-(((4R,5R)-7-ethyl-4-(4-fluorophenyl)-6-oxo-1-phenyl-5-(3-(trifluoromethyl)benzamido)-4,5,6,7-tetrahydro-1H-pyrazolo[3,4-b]pyridin-3-yl)(hydroxy)methyl)acrylate], under setting [1], the negative logarithm of the IC50 (pIC50) was 6.00 to 6.70. Besides, the IC50 under setting [2] lay in the range of 1000 to 3000 nM.

Take `CCN1C(=O)[C@@H](NC(=O)c2cccc(C(F)(F)F)c2)[C@@H](c2ccc(F)cc2)c2c(CNC(=O)/C=C/C(=O)NCCN(C)C)nn(-c3ccccc3)c21` (racemic) [Compound I-154, rac-N1-(2-(dimethylamino)ethyl)-N4-(((4R,5R)-7-ethyl-4-(4-fluorophenyl)-6-oxo-1-phenyl-5-(3-(trifluoromethyl)benzamido)-4,5,6,7-tetrahydro-1H-pyrazolo[3,4-b]pyridine-3-yl)methyl)fumaramide]: the negative-log IC50 (pIC50) under setting [1] is not below 6.70. In addition, under setting [2], the IC50 was 200 to 1000 nM.

For the compound `CCN1C(=O)[C@@H](NC(=O)c2cccc(C(F)(F)F)c2)[C@@H](c2ccc(F)cc2)c2c(CNC(=O)/C(C)=C/C(=O)OC)nn(-c3ccccc3)c21` (racemic) [Compound I-155], under setting [1], the pIC50 was 6.00 to 6.70. Further, the half-maximal inhibitory concentration (IC50) under setting [2] fell in the range of 1000 to 3000 nM.

Turning to `C/C=C(\C)S(=O)(=O)NCc1nn(-c2ccccc2)c2c1[C@H](c1ccc(F)cc1)[C@H](NC(=O)c1cccc(C(F)(F)F)c1)C(=O)N2CC` (racemic) [Compound I-159], the pIC50 under setting [1] was 6.00 to 6.70. Besides, under setting [2], the half-maximal inhibitory concentration (IC50) lay within 1000 to 3000 nM.

Consider `CCN1C(=O)[C@H](NC(=O)c2cccc(C(F)(F)F)c2)[C@H](c2ccc(F)cc2)c2c([C@@H](C)N(C)C#N)nn(-c3ccccc3)c21` (relative stereo) [Compound I-79, N-((4R*,5R*)-7-ethyl-4-(4-fluorophenyl)-3-((R)-1-(N-methylcyanamido)ethyl)-6-oxo-1-phenyl-4,5,6,7-tetrahydro-1H-pyrazolo[3,4-b]pyridine-5-yl)-3-(trifluoromethyl)benzamide], for which, under setting [1], the pIC50 was 5.52 to 6.00. For the same compound, the concentration for half-maximal inhibition (IC50) under setting [2] is 1000 to 3000 nM.

Turning to `CCN1C(=O)[C@@H](NC(=O)c2cccc(C(F)(F)F)c2)[C@@H](c2ccc(F)cc2)c2c(CNC(=O)[C@H](C)C#N)nn(-c3ccccc3)c21` (relative stereo) [Compound I-85, N-((4RS,5RS)-3-(((S*)-2-cyanopropanamido)methyl)-7-ethyl-4-(4-fluorophenyl)-6-oxo-1-phenyl-4,5,6,7-tetrahydro-1H-pyrazolo[3,4-b]pyridin-5-yl)-3-(trifluoromethyl)benzamide], under setting [1], the negative-log IC50 (pIC50) was 5.52 to 6.00. Also, the IC50 under setting [2] fell in the range of 1000 to 3000 nM.

Turning to `CCN1C(=O)[C@@H](NC(=O)c2cccc(C(F)(F)F)c2)[C@@H](c2ccc(F)cc2)c2c(CNC(=O)[C@@H](C)C#N)nn(-c3ccccc3)c21` (relative stereo) [Compound I-158, N-((4RS,5RS)-3-(((R*)-2-cyanopropanamido)methyl)-7-ethyl-4-(4-fluorophenyl)-6-oxo-1-phenyl-4,5,6,7-tetrahydro-1H-pyrazolo[3,4-b]pyridin-5-yl)-3-(trifluoromethyl)benzamide], under setting [1], the pIC50 was 6.00 to 6.70. Further, the concentration for half-maximal inhibition (IC50) under setting [2] lay in the range of 200 to 1000 nM.

Turning to `CCN1C(=O)[C@H](NC(=O)c2cccc(C(F)(F)F)c2)[C@@H](c2ccc(F)cc2)c2c(CN(C)C#N)nn(-c3ccccc3)c21` (single isomer, unassigned) [Compound I-82], under setting [1], the pIC50 is 5.52 to 6.00. In addition, the half-maximal inhibitory concentration (IC50) under setting [2] was 1000 to 3000 nM.

As for `CCN1C(=O)[C@@H](NC(=O)c2cccc(C(F)(F)F)c2)[C@H](c2ccc(F)cc2)c2c(CN(C)C#N)nn(-c3ccccc3)c21` (single isomer, unassigned) [Compound I-133], under setting [1], the pIC50 is 6.00 to 6.70. Further, under setting [2], the IC50 lay within 200 to 1000 nM.

Consider `CCN1C(=O)[C@@H](NC(=O)c2cccc(C(F)(F)F)c2)[C@@H](c2ccc(F)cc2)c2c([C@@H](C)N(C)C#N)nn(-c3ccccc3)c21` [Compound I-44], for which the pIC50 under setting [1] is not below 6.70. Also, under setting [2], the concentration for half-maximal inhibition (IC50) lay within 200 to 1000 nM.

Consider `C=C(COC)C(=O)NCc1nn(-c2ccccc2)c2c1[C@@H](c1ccc(F)cc1)[C@H](NC(=O)c1cccc(C(F)(F)F)c1)C(=O)N2CC` [Compound I-109], for which the negative logarithm of the IC50 (pIC50) under setting [1] is 6.00 to 6.70. In addition, the half-inhibitory concentration (IC50) under setting [2] lay within 200 to 1000 nM.

As for `CCN1C(=O)[C@@H](NC(=O)c2cccc(C(F)(F)F)c2)[C@@H](C2CC2)c2c(CN(C)C#N)nn(-c3ccccc3)c21` [Compound I-111], the pIC50 under setting [1] was 6.00 to 6.70. Besides, the IC50 under setting [2] was 1000 to 3000 nM.

Take `C=C(COC)C(=O)NCc1nn(-c2ccccc2)c2c1[C@H](c1ccc(F)cc1)[C@H](NC(=O)c1cccc(C(F)(F)F)c1)C(=O)N2CC` [Compound I-113]: the pIC50 under setting [1] is 6.00 to 6.70. In addition, the half-maximal inhibitory concentration (IC50) under setting [2] was 200 to 1000 nM.

`CCN1C(=O)[C@@H](NC(=O)c2cccc(C(F)(F)F)c2)[C@@H](c2ccc(F)cc2)c2c(CNC(=O)C34CC3C4)nn(-c3ccccc3)c21` (stereo partly drawn) [Compound I-114, N-[[(4S, 5S)-7-ethyl-4-(4-fluorophenyl)-6-oxo-1-phenyl-5-[[3-(trifluoromethyl)benzoyl]amino]-4,5-dihydropyrazolo[3,4-b]pyridine-3-yl]methyl]bicyclo[1.1.0]butane-1-carboxamide]: under setting [1], the pIC50 was 6.00 to 6.70. In addition, under setting [2], the half-maximal inhibitory concentration (IC50) lay in the range of 200 to 1000 nM.

As for `CCN1C(=O)[C@@H](NC(=O)c2cccc(C(F)(F)F)c2)[C@@H](c2ccc(F)cc2)c2c(C/C=C/C(=O)NCCN(C)C)nn(-c3ccccc3)c21` [Compound I-118], the negative logarithm of the IC50 (pIC50) under setting [1] is 6.00 to 6.70. The IC50 under setting [2] was in the range of 200 to 1000 nM.

As for `CCN1C(=O)[C@@H](NC(=O)c2cccc(C(F)(F)F)c2)[C@@H](c2ccc(F)cc2)c2c(CC/C=C/C(N)=O)nn(-c3ccccc3)c21` [Compound I-124], the negative logarithm of the IC50 (pIC50) under setting [1] is 6.00 to 6.70. The half-inhibitory concentration (IC50) under setting [2] fell in the range of 200 to 1000 nM.

`CCN1C(=O)[C@@H](NC(=O)c2cccc(C(F)(F)F)c2)[C@@H](c2ccc(F)cc2)c2c([C@@H](O)CNC#N)nn(-c3ccccc3)c21` [Compound I-130]: the pIC50 under setting [1] was 6.00 to 6.70. In addition, the IC50 under setting [2] was in the range of 200 to 1000 nM.

With `CCN1C(=O)[C@@H](NC(=O)c2cccc(C(F)(F)F)c2)[C@@H](c2ccc(F)cc2)c2c(CNC(=O)C3=C(C(=O)OC)CCC3)nn(-c3ccccc3)c21` [Compound I-135], under setting [1], the pIC50 is 6.00 to 6.70. The half-maximal inhibitory concentration (IC50) under setting [2] was in the range of 200 to 1000 nM.

For `C[C@@H](NC#N)c1nn(-c2ccccc2)c2c1[C@H](c1ccc(F)cc1)[C@H](NC(=O)c1cccc(C(F)(F)F)c1)C(=O)N2CCOP(=O)(O)O` [Compound I-162], the pIC50 runs as follows: under setting [1], not below 6.70; (read-out: TR FRET IC50 1 hr, 1 hr after treatment with compound) not below 6.70.

Consider `CCN1C(=O)[C@@H](NC(=O)C2(c3ccccc3)CC2)[C@@H](C2CC2)c2c(C(=O)N3[C@H](C#N)C[C@H]4C[C@H]43)nn(C3CCOCC3)c21` [Compound I-419], for which the pIC50 under setting [1] is 5.52 to 6.00. The half-maximal inhibitory concentration (IC50) under setting [2] lay in the range of 1000 to 3000 nM.

As to `CCN1C(=O)[C@@H](NC(=O)C2CCN(C)CC2)[C@@H](C2CC2)c2c(C(=O)N3[C@H](C#N)C[C@H]4C[C@H]43)nn(C3CCOCC3)c21` [Compound I-423], the pIC50 under setting [1] is 5.52 to 6.00. In addition, the IC50 under setting [2] lay in the range of 1000 to 3000 nM.
